pIC50, pKi: −log10 of the molar value. Calls of active or inactive are those of the source. The rule behind the calls is not given here.
Key:
[1] = target: T1, Coagulation factor X (Homo sapiens, UniProt P00742); assay: In vitro inhibitory activity against factor Xa
[2] = target: Prothrombin (Homo sapiens, UniProt P00734); assay: In vitro inhibitory activity against serine protease thrombin
[3] = target: T1, Coagulation factor X; assay: (§1) In vitro binding affinity towards factor Xa
[4] = In vivo half life period after intravenous administration in rat; assay type: ADME, organism-based
[5] = system: Oryctolagus cuniculus; assay: In vivo inhibition of thrombosis formation in rabbit; assay type: functional
[6] = target: Vitamin K-dependent protein C (Homo sapiens, UniProt P04070); assay: Inhibitory activity against activated protein C (aPC)
Vitamin K-dependent protein C, sequence (P04070 43-197 limits assumed): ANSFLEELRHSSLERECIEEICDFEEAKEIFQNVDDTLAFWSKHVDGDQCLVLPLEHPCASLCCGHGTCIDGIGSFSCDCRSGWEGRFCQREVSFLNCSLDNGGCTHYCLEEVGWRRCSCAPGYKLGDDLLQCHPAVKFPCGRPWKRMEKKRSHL
Vitamin K-dependent protein C, sequence (P04070 212-461 limits assumed): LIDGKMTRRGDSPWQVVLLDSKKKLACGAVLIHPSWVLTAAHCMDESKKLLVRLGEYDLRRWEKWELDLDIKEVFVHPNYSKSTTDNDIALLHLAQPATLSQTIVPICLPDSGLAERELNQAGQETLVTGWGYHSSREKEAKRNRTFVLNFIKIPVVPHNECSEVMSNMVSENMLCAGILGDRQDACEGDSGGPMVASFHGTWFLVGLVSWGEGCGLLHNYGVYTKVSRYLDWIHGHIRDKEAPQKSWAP

[7] = system: Oryctolagus cuniculus; assay: In vivo plasma concentration required to inhibit thrombosis formation in rabbit; assay type: functional, organism-based
[8] = target: Plasminogen (Homo sapiens, UniProt P00747); assay: Inhibitory activity against Plasmin
Plasminogen, sequence (P00747 97-580 limits assumed): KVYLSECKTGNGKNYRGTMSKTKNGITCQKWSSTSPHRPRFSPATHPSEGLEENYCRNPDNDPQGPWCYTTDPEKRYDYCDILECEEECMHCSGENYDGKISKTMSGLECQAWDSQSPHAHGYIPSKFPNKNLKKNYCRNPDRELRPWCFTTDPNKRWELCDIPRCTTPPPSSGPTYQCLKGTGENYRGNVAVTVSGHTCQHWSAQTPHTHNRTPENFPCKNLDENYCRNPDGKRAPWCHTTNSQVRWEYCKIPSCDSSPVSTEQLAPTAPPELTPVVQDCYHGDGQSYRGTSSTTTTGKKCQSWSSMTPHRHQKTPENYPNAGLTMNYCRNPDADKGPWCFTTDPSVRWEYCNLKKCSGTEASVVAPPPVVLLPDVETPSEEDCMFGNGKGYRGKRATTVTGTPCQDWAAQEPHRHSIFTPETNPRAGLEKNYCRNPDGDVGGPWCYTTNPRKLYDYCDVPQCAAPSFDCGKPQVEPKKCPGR
Plasminogen, sequence (P00747 581-810 limits assumed): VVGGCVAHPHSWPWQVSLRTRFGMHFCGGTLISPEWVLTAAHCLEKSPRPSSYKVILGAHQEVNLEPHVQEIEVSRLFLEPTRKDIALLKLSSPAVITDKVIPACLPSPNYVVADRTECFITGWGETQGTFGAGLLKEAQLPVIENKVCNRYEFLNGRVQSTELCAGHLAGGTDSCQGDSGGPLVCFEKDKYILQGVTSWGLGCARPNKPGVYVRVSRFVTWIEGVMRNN

[9] = In vitro anticoagulant activity was measured by prothrombin time (PT) assay; assay type: functional
[10] = target: T1, Coagulation factor X; assay: as §1; remark: listed apart in the source
[11] = target: Tissue-type plasminogen activator (Homo sapiens, UniProt P00750); assay: Inhibitory activity against tissue plasminogen activator (tissue plasminogen activator)
Tissue-type plasminogen activator, sequence (P00750 whole entry): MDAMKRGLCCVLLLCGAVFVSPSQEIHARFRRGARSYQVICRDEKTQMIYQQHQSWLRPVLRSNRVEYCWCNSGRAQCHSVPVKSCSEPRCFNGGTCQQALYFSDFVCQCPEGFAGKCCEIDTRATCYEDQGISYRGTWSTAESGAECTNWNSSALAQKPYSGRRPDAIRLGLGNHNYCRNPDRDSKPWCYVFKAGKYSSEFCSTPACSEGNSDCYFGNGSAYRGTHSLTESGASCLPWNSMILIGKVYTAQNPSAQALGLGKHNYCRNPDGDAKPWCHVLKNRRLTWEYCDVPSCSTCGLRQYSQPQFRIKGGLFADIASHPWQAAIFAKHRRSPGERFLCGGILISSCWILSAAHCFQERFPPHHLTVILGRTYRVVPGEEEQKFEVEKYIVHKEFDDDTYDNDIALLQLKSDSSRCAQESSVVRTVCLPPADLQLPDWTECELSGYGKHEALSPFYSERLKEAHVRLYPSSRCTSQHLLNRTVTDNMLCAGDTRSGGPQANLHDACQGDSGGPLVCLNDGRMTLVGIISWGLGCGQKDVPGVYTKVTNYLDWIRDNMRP

[12] = target: Serine protease 1 (Homo sapiens, UniProt P07477); assay: Inhibitory activity against Trypsin
Serine protease 1, sequence (P07477 whole entry): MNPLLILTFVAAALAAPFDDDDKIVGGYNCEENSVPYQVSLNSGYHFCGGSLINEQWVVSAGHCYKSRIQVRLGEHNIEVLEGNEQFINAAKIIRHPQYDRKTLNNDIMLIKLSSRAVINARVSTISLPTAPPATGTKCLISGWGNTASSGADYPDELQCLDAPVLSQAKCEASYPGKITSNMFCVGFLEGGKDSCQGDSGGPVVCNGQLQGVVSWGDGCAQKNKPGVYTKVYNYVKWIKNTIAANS

[13] = Inhibitory activity against Kallikrein
[14] = In vitro anticoagulant activity was measured by activated partial thromboplastin time (APTT) assay; assay type: functional
[15] = In vitro anticoagulant activity was measured by plasma based thrombin generation (TG) assay; assay type: functional
[16] = In vitro anticoagulant activity was measured by plasma based on thrombin generation (TG) assay; assay type: functional
[17] = system: Oryctolagus cuniculus; assay: In vivo inhibition thrombosis formation in rabbit; assay type: functional
[18] = species on record: Oryctolagus cuniculus; assay: Plasma concentration required to inhibit thrombosis formation in rabbit; assay type: functional, organism-based
[19] = species on record: Oryctolagus cuniculus; assay: Inhibition thrombosis formation in rabbit; assay type: functional
[20] = target: T1, Coagulation factor X; assay: In vitro binding affinity towards factor Xa; Not active

T1 sequence (P00742 41-179 limits assumed): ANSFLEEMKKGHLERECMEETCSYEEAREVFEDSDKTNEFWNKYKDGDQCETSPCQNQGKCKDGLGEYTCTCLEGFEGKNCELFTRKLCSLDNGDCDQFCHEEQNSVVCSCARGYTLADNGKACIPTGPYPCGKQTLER
T1 sequence (P00742 235-488 limits assumed): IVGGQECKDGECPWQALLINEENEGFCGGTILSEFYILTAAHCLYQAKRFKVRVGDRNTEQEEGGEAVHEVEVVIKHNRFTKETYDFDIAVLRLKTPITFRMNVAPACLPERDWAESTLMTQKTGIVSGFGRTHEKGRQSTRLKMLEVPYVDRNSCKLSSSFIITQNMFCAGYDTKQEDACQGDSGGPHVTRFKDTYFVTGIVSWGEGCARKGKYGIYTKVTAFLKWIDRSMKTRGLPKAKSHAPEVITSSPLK

N=C(N)NCCCC(NC(=O)CN1CCN(S(=O)(=O)c2ccc(F)cc2)CC1=O)C(=O)c1nccs1 (configuration not stated) showed a pIC50 [1] of 8.70 and a pIC50 [2] of 6.12.
For N=C(N)NCCCC(NC(=O)CN1CCN(S(=O)(=O)c2cccc(Cl)c2)CC1=O)C(=O)c1nccs1 (configuration not stated), the pIC50 [1] was 8.30 and the pIC50 [2] was 6.87.
COc1ccc(S(=O)(=O)N2CCN(CC(=O)NC(CCCNC(=N)N)C(=O)c3nccs3)C(=O)C2)cc1 (configuration not stated) gave a pIC50 [1] of 9.05 and a pIC50 [2] of 6.10.
N=C(N)NCCC[C@@H](NC(=O)CN1CCN(C(=O)c2ccccc2)CC1=O)C(=O)c1nccs1 showed a pIC50 [1] of 6.49 and a pIC50 [2] of 5.15.
CC(=O)Nc1nc(C)c(S(=O)(=O)N2CCN(CC(=O)NC(CCCN=C(N)N)C(=O)c3nccs3)C(=O)C2)s1 (configuration not stated) gave a pIC50 [1] of 7.24 and a pIC50 [2] of 5.40.
With N=C(N)NCCCC(NC(=O)CN1CCN(S(=O)(=O)c2ccc(N)cc2)CC1=O)C(=O)c1nccs1 (configuration not stated) the pIC50 [1] was 8.22 and the pIC50 [2] was 5.30.
N=C(N)NCCC[C@@H](NC(=O)CN1CCC[C@H](NS(=O)(=O)Cc2ccccc2)C1=O)C(=O)c1nccs1 showed a pIC50 [1] of 7.54 and a pIC50 [2] of 6.86.
N#Cc1ccc(S(=O)(=O)N2CCN(CC(=O)NC(CCCNC(=N)N)C(=O)c3nccs3)C(=O)C2)cc1 (configuration not stated) showed a pIC50 [1] of 7.49 and a pIC50 [2] of 5.52.
Work on N=C(N)NCCCC(NC(=O)CN1CCN(S(=O)(=O)c2ccc(Br)cc2)CC1=O)C(=O)c1nccs1 (configuration not stated) yielded a pIC50 [1] of 9.15 and a pIC50 [2] of 6.09.
N=C(N)NCCCC(NC(=O)CN1CCN(S(=O)(=O)c2ccc(-c3ccccn3)s2)CC1=O)C(=O)c1nccs1 (configuration not stated) gave a pIC50 [1] of 8.40 and a pIC50 [2] of 5.40.
Work on N=C(N)NCCC[C@@H](NC(=O)CN1CCN(S(=O)(=O)Cc2ccccc2)CC1=O)C(=O)c1nccs1 yielded a k off [3] of 0.013 s⁻¹, a k on [3] of 2.3e+06 M⁻¹ s⁻¹ and a half-life [4] of 10 min. The pIC50 [1] was 8.40, the pIC50 [2] was 6.41 and the Inhibition [5] was 35%. It also gave a pIC50 [6] of less than 3.74, a Plasma concentration [7] of 0.4 µM and a pIC50 [8] of 4.92. The 2x PT [9] was 11.7 µM, the pKi [10] was 8.85 and the pIC50 [11] was 5.40. The pIC50 [12] was 7.48, the pIC50 [13] was 6.17 and the 2x APTT [14] was 2.8 µM. For the same molecule, the “2x TG” value [15] was “inactive”.
Work on N=C(N)NCCC[C@@H](NC(=O)CN1CCCC(CCC2CCNCC2)C1=O)C(=O)c1nccs1 (some centres not stated) yielded a pIC50 [1] of 7.19 and a pIC50 [2] of 4.92.
N=C(N)NCCC[C@@H](NC(=O)CN1CCNCC1=O)C(=O)c1nccs1 gave a pIC50 [1] of 5.70 and a pIC50 [2] of 3.66.
N=C(N)NCCC[C@@H](NC(=O)Cn1cccc(NS(=O)(=O)Cc2ccccc2)c1=O)C(=O)c1nccs1 gave a pIC50 [2] of 8.10.
N=C(N)NCCC[C@@H](NC(=O)CN1CCN(C(=O)Cc2ccc(Cl)cc2)CC1=O)C(=O)c1nccs1 showed a pIC50 [1] of 7.77 and a pIC50 [2] of 4.96.
N=C(N)NCCCC(NC(=O)CN1CCN(S(=O)(=O)c2ccc(C(F)(F)F)cc2)CC1=O)C(=O)c1nccs1 (configuration not stated) gave a pIC50 [1] of 8.00 and a pIC50 [2] of 5.22.
Work on N=C(N)NCCCC(NC(=O)CN1CCN(S(=O)(=O)c2cc(Cl)c(Cl)cc2Cl)CC1=O)C(=O)c1nccs1 (configuration not stated) yielded a pIC50 [1] of 9.00 and a pIC50 [2] of 6.24.
Molecule N=C(N)NCCC[C@@H](NC(=O)CN1CCCC[C@H](NS(=O)(=O)Cc2ccccc2)C1=O)C(=O)c1nccs1 has a pIC50 [2] of 7.42.
N=C(N)NCCCC(NC(=O)CN1CCN(S(=O)(=O)c2cccc3cccnc23)CC1=O)C(=O)c1nccs1 (configuration not stated) gave a k off [3] of 0.107 s⁻¹, a k on [3] of 2.9e+06 M⁻¹ s⁻¹ and a half-life [4] of 29 min. It also gave a pIC50 [1] of 8.70, a pIC50 [2] of 6.24 and a pIC50 [6] of less than 3.74. It also gave a Plasma concentration [7] of 0.4 µM, a pIC50 [8] of 8.00 and a 2x PT [9] of 10.4 µM. The pKi [10] was 8.36, the “2x TG” value [16] was 2.5 µM and the pIC50 [11] was 6.82. It also gave a pIC50 [12] of 8.70, a pIC50 [13] of 6.62 and a 2x APTT [14] of 2 µM. For the same molecule, the Inhibition [17] was 0%.
N=C(N)NCCC[C@@H](NC(=O)CN1CCN(C(=O)c2ccc(Cl)cc2)CC1=O)C(=O)c1nccs1 gave a pIC50 [1] of 6.93 and a pIC50 [2] of 5.30.
N=C(N)NCCCC(NC(=O)CN1CCN(S(=O)(=O)c2ccc3ccccc3c2)CC1=O)C(=O)c1nccs1 (configuration not stated) showed a k off [3] of 0.132 s⁻¹, a k on [3] of 6.3e+06 M⁻¹ s⁻¹ and a half-life [4] of 15 min. For the same molecule, the pIC50 [1] was 8.10, the pIC50 [2] was 5.22 and the pIC50 [6] was less than 3.74. For the same molecule, the Plasma concentration [7] was 0.8 µM, the pIC50 [8] was 5.16 and the 2x PT [9] was 14.5 µM. For the same molecule, the pKi [10] was 8.57, the “2x TG” value [16] was “inactive” and the pIC50 [11] was 5.73. The pIC50 [12] was 7.41, the pIC50 [13] was 6.41 and the 2x APTT [14] was 13.5 µM. For the same molecule, the Inhibition [17] was 0%.
N=C(N)NCCCC(NC(=O)CN1CCN(S(=O)(=O)c2cccc3ccccc23)CC1=O)C(=O)c1nccs1 (configuration not stated) showed a pIC50 [1] of 8.70 and a pIC50 [2] of 6.93.
Work on Cc1c(S(=O)(=O)N2CCN(CC(=O)NC(CCCN=C(N)N)C(=O)c3nccs3)C(=O)C2)sc2ccc(Cl)cc12 (configuration not stated) yielded a Plasma concentration [18] of 1.6 µM, an Inhibition [19] of 0% and a 2x PT [9] of 14.5 µM. The “2x TG” value [16] was 5.46 µM, the k_off [20] was “inactive” and the k_on [20] was “inactive”. The pIC50 [13] was 8.03 and the 2x APTT [14] was 15.5 µM.
